Assay results from US7781591B2, “Substituted 3-cyanopyridines as protein kinase inhibitors” (Wyeth LLC, priority 2006, dated 2010).

target: T1, human PKCθ full length enzyme (Homo sapiens, UniProt Q04759); assay: PKCθ IMAP assay (fluorescence polarization); format: biochemical; details: human PKCθ full length enzyme, IMAP; average value; read-out: IC50 PKCθ IMAP
T1 construct: human PKCθ full length enzyme (Panvera Cat# P2996); purchased Panvera P2996
T1 sequence (Q04759 whole entry): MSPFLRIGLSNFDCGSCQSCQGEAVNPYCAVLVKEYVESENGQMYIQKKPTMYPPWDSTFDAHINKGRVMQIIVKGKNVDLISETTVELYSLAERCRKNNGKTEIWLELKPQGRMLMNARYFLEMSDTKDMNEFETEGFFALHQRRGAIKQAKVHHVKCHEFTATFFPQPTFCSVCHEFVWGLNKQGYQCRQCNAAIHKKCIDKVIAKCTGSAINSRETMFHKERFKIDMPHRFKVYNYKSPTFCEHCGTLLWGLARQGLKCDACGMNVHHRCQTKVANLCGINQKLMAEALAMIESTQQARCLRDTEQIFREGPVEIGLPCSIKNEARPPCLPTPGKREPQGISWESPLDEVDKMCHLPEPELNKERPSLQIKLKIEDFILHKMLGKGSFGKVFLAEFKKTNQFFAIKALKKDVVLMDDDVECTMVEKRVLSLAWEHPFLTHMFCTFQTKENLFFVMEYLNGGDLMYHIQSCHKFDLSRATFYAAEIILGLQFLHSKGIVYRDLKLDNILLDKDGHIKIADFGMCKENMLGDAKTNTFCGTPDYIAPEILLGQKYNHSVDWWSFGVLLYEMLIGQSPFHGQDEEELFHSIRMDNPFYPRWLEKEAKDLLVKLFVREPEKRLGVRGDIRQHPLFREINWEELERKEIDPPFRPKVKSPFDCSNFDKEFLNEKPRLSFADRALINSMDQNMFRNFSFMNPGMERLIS

Compound | IC50
Cc1c(Nc2c(C#N)cncc2-c2ccc(OCCN3CCCC3)cc2)ccc2[nH]ccc12 [Compound 418, 4-[(4-methyl-1H-indol-5-yl)amino]-5-[4-(2-pyrrolidin-1-ylethoxy)phenyl]nicotinonitrile] | 4 nM
Cc1c(Nc2c(C#N)cncc2-c2ccc(OCCNCc3ccccc3)cc2)ccc2[nH]ccc12 [Compound 419, 5-{4-[2-(benzylamino)ethoxy]phenyl}-4-[(4-methyl-1H-indol-5-yl)amino]nicotinonitrile] | 4 nM
Cc1c(Nc2c(C#N)cncc2-c2ccc(OCCNC3CCN(C)CC3)cc2)ccc2[nH]ccc12 [Compound 420, 4-[(4-methyl-1H-indol-5-yl)amino]-5-(4-{2-[(1-methylpiperidin-4-yl)amino]ethoxy}phenyl)nicotinonitrile] | 3 nM
Cc1c(Nc2c(C#N)cncc2-c2ccc(OCCNCC3CCN(C)CC3)cc2)ccc2[nH]ccc12 [Compound 421, 4-[(4-methyl-1H-indol-5-yl)amino]-5-[4-(2-{[(1-methylpiperidin-4-yl)methyl]amino}ethoxy)phenyl]nicotinonitrile] | 3 nM
Cc1c(Nc2c(C#N)cncc2-c2ccc(OCCN3CCC(CO)CC3)cc2)ccc2[nH]ccc12 [Compound 422, 5-(4-{2-[4-(hydroxymethyl)piperidin-1-yl]ethoxy}phenyl)-4-[(4-methyl-1H-indol-5-yl)amino]nicotinonitrile] | 8 nM
Cc1c(Nc2c(C#N)cncc2-c2ccc(OCCN3CCC(N4CCCC4)CC3)cc2)ccc2[nH]ccc12 [Compound 423, 4-[(4-methyl-1H-indol-5-yl)amino]-5-{4-[2-(4-pyrrolidin-1-ylpiperidin-1-yl)ethoxy]phenyl}nicotinonitrile] | 11 nM
Cc1c(Nc2c(C#N)cncc2-c2ccc(OCCN3CCC(N4CCOCC4)CC3)cc2)ccc2[nH]ccc12 [Compound 424, 4-[(4-methyl-1H-indol-5-yl)amino]-5-{4-[2-(4-morpholin-4-ylpiperidin-1-yl)ethoxy]phenyl}nicotinonitrile] | 4 nM
CCN1CCN(CCOc2ccc(-c3cncc(C#N)c3Nc3ccc4[nH]ccc4c3C)cc2)CC1 [Compound 425, 5-{4-[2-(4-ethylpiperazin-1-yl)ethoxy]phenyl}-4-[(4-methyl-1H-indol-5-yl)amino]nicotinonitrile] | 9 nM
Cc1c(Nc2c(C#N)cncc2-c2ccc(OCCN3CCCN(C)CC3)cc2)ccc2[nH]ccc12 [Compound 426, 5-{4-[2-(4-methyl-1,4-diazepan-1-yl)ethoxy]phenyl}-4-[(4-methyl-1H-indol-5-yl)amino]nicotinonitrile] | 13 nM
Cc1c(Nc2c(C#N)cncc2-c2ccc(OCCN3CCN(CCO)CC3)cc2)ccc2[nH]ccc12 [Compound 427, 5-(4-{2-[4-(2-hydroxyethyl)piperazin-1-yl]ethoxy}phenyl)-4-[(4-methyl-1H-indol-5-yl)amino]nicotinonitrile] | 14 nM
Cc1c(Nc2c(C#N)cncc2-c2ccc(OCCN3CCN(CCN(C)C)CC3)cc2)ccc2[nH]ccc12 [Compound 428, 5-[4-(2-{4-[2-(dimethylamino)ethyl]piperazin-1-yl}ethoxy)phenyl]-4-[(4-methyl-1H-indol-5-yl)amino]nicotinonitrile] | 15 nM
Cc1c(Nc2c(C#N)cncc2-c2ccc(OCCNCCCn3ccnc3)cc2)ccc2[nH]ccc12 [Compound 429, 5-[4-(2-{[3-(1H-imidazol-1-yl)propyl]amino}ethoxy)phenyl]-4-[(4-methyl-1H-indol-5-yl)amino]nicotinonitrile] | 5 nM
Cc1c(Nc2c(C#N)cncc2-c2ccc(OCCN3CCN(c4ccccn4)CC3)cc2)ccc2[nH]ccc12 [Compound 430, 4-[(4-methyl-1H-indol-5-yl)amino]-5-{4-[2-(4-pyridin-2-ylpiperazin-1-yl)ethoxy]phenyl}nicotinonitrile] | 17 nM
Cc1c(Nc2c(C#N)cncc2-c2ccc(OCCN3CCN(c4ccncc4)CC3)cc2)ccc2[nH]ccc12 [Compound 431, 4-[(4-methyl-1H-indol-5-yl)amino]-5-{4-[2-(4-pyridin-4-ylpiperazin-1-yl)ethoxy]phenyl}nicotinonitrile] | 5 nM
Cc1c(Nc2c(C#N)cncc2-c2ccc(OCCNCc3ccccn3)cc2)ccc2[nH]ccc12 [Compound 432, 4-[(4-methyl-1H-indol-5-yl)amino]-5-(4-{2-[(pyridin-2-ylmethyl)amino]ethoxy}phenyl)nicotinonitrile] | 9 nM
Cc1c(Nc2c(C#N)cncc2-c2ccc(OCCNCc3cccnc3)cc2)ccc2[nH]ccc12 [Compound 433, 4-[(4-methyl-1H-indol-5-yl)amino]-5-(4-{2-[(pyridin-3-ylmethyl)amino]ethoxy}phenyl)nicotinonitrile] | 10 nM
Cc1c(Nc2c(C#N)cncc2-c2ccc(OCCNCc3ccncc3)cc2)ccc2[nH]ccc12 [Compound 434, 4-[(4-methyl-1H-indol-5-yl)amino]-5-(4-{2-[(pyridin-4-ylmethyl)amino]ethoxy}phenyl)nicotinonitrile] | 14 nM
Cc1c(Nc2c(C#N)cncc2-c2ccc(OCCN3CCC(c4ccccc4)CC3)cc2)ccc2[nH]ccc12 [Compound 435, 4-[(4-methyl-1H-indol-5-yl)amino]-5-{4-[2-(4-phenylpiperidin-1-yl)ethoxy]phenyl}nicotinonitrile] | 49 nM
Cc1c(Nc2c(C#N)cncc2-c2ccc(CN3CCC(N(C)C)CC3)o2)ccc2[nH]ccc12 [Compound 436, 5-(5-{[4-(dimethylamino)piperidin-1-yl]methyl}-2-furyl)-4-[(4-methyl-1H-indol-5-yl)amino]nicotinonitrile] | 1 nM

Compound | IC50
Cc1c(Nc2c(C#N)cncc2-c2ccc(CN3CCN(C(C)C)CC3)o2)ccc2[nH]ccc12 [Compound 437, 5-{5-[(4-isopropylpiperazin-1-yl)methyl]-2-furyl}-4-[(4-methyl-1H-indol-5-yl)amino]nicotinonitrile] | 2 nM
Cc1c(Nc2c(C#N)cncc2-c2cc3cc(OCCN4CCN(C)CC4)ccc3o2)ccc2[nH]ccc12 [Compound 438, 4-[(4-methyl-1H-indol-5-yl)amino]-5-{5-[2-(4-methylpiperazin-1-yl)ethoxy]-1-benzofuran-2-yl}nicotinonitrile] | 4 nM
COc1ccc(-c2cncc(C#N)c2NCCN2CCN(C)CC2)cc1OC [Compound 439, 5-(3,4-dimethoxyphenyl)-4-{[2-(4-methylpiperazin-1-yl)ethyl]amino}nicotinonitrile] | 5850 nM
COc1ccc(-c2cncc(C#N)c2NCCCN2CCN(C)CC2)cc1OC [Compound 440, 5-(3,4-dimethoxyphenyl)-4-{[3-(4-methylpiperazin-1-yl)propyl]amino}nicotinonitrile] | 14300 nM
COc1ccc(-c2cncc(C#N)c2NC[C@H]2CC[C@H](CN)CC2)cc1OC [Compound 441, 4-({[trans-4-(aminomethyl)cyclohexyl]methyl}amino)-5-(3,4-dimethoxyphenyl)nicotinonitrile] | 529 nM
COc1ccc(-c2cncc(C#N)c2NC[C@H]2CC[C@H](N)CC2)cc1OC [Compound 442, 4-{[(trans-4-aminocyclohexyl)methyl]amino}-5-(3,4-dimethoxyphenyl)nicotinonitrile] | 1770 nM
COc1ccc(-c2cncc(C#N)c2NCCC2CCNCC2)cc1OC [Compound 444, 5-(3,4-dimethoxyphenyl)-4-[(2-piperidin-4-ylethyl)amino]nicotinonitrile] | 2460 nM
COc1ccc(-c2cncc(C#N)c2NCC2CCNCC2)cc1OC [Compound 445, 5-(3,4-dimethoxyphenyl)-4-[(piperidin-4-ylmethyl)amino]nicotinonitrile] | 20400 nM
COc1ccc(-c2cncc(C#N)c2N[C@H]2CC[C@@H](N)CC2)cc1OC [Compound 446, 4-[(cis-4-aminocyclohexyl)amino]-5-(3,4-dimethoxyphenyl)nicotinonitrile] | 4880 nM
COc1ccc(-c2cncc(C#N)c2NCCC2CCN(C)CC2)cc1OC [Compound 447, 5-(3,4-dimethoxyphenyl)-4-{[2-(1-methylpiperidin-4-yl)ethyl]amino}nicotinonitrile] | 1930 nM
COc1ccc(-c2cncc(C#N)c2NCC2CCN(C)CC2)cc1OC [Compound 448, 5-(3,4-dimethoxyphenyl)-4-{[(1-methylpiperidin-4-yl)methyl]amino}nicotinonitrile] | 14100 nM
Cc1c(Nc2c(C#N)cncc2-c2ccc(CN3CCN(C)CC3)cc2)ccc2[nH]ccc12 [Compound 449, 4-[(4-methyl-1H-indol-5-yl)amino]-5-{4-[(4-methylpiperazin-1-yl)methyl]phenyl}nicotinonitrile] | 5 nM
Cc1c(Nc2c(C#N)cncc2-c2ccc(CN3CCCC3)cc2)ccc2[nH]ccc12 [Compound 450, 4-[(4-methyl-1H-indol-5-yl)amino]-5-[4-(pyrrolidin-1-ylmethyl)phenyl]nicotinonitrile] | 16 nM
Cc1c(Nc2c(C#N)cncc2-c2ccc(CN3CCOCC3)cc2)ccc2[nH]ccc12 [Compound 451, 4-[(4-methyl-1H-indol-5-yl)amino]-5-[4-(morpholin-4-ylmethyl)phenyl]nicotinonitrile] | 9 nM
Cc1c(Nc2c(C#N)cncc2-c2ccc(CN(C)C)cc2)ccc2[nH]ccc12 [Compound 452, 5-{4-[(dimethylamino)methyl]phenyl}-4-[(4-methyl-1H-indol-5-yl)amino]nicotinonitrile] | 8 nM
Cc1c(Nc2c(C#N)cncc2-c2ccnc(CN3CCOCC3)c2)ccc2[nH]ccc12 [Compound 453, 4-[(4-methyl-1H-indol-5-yl)amino]-2′-(morpholin-4-ylmethyl)-3,4′-bipyridine-5-carbonitrile] | 60 nM
Cc1c(Nc2c(C#N)cncc2-c2cccc(CN3CCN(C)CC3)c2)ccc2[nH]ccc12 [Compound 454, 4-[(4-methyl-1H-indol-5-yl)amino]-5-{3-[(4-methylpiperazin-1-yl)methyl]phenyl}nicotinonitrile] | 3 nM
Cc1c(Nc2c(C#N)cncc2-c2cccc(CN3CCCC3)c2)ccc2[nH]ccc12 [Compound 455, 4-[(4-methyl-1H-indol-5-yl)amino]-5-[3-(pyrrolidin-1-ylmethyl)phenyl]nicotinonitrile] | 7 nM
